“And” between values parts separate entries of the source, which are not always exact repeats. Equal values may be shown once. Inconclusive results and toxic doses are left out.
Test system: P388 leukemia ip, CD2F1 mice, survival T/C
Assay: NCI In Vivo Anticancer Drug Screen. Data for tumor model P388 Leukemia (intraperitoneal) in CD2F1 (CDF1) mice
Conditions: endpoint: median survival time, higher = longer survival
Method in brief: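 Mice carrying the transplanted tumor received test compound or vehicle. Survival was recorded in each group, and the value is the treated-group measurement divided by that of the vehicle-treated control group.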

[1] = dose: 60.0 mg/kg/injection, schedule: Q01DX005 (ip), vehicle: saline with Tween-80
[2] = dose: 120.0 mg/kg/injection, schedule: Q01DX005 (ip), vehicle: saline with Tween-80
[3] = dose: 240.0 mg/kg/injection, schedule: Q01DX005 (ip), vehicle: saline with Tween-80
[4] = dose: 50.0 mg/kg/injection, schedule: Q01DX009 (ip), vehicle: Klucel (hydroxypropylcellulose) (HPC)
[5] = dose: 100.0 mg/kg/injection, schedule: Q01DX009 (ip), vehicle: Klucel (hydroxypropylcellulose) (HPC)
[6] = dose: 200.0 mg/kg/injection, schedule: Q01DX009 (ip), vehicle: Klucel (hydroxypropylcellulose) (HPC)
[7] = dose: 50.0 mg/kg/injection, schedule: Q01DX005 (ip), vehicle: saline with Tween-80
[8] = dose: 100.0 mg/kg/injection, schedule: Q01DX005 (ip), vehicle: saline with Tween-80
[9] = dose: 200.0 mg/kg/injection, schedule: Q01DX005 (ip), vehicle: saline with Tween-80
[10] = dose: 50.0 mg/kg/injection, schedule: Q01DX009 (ip), vehicle: saline
[11] = dose: 100.0 mg/kg/injection, schedule: Q01DX009 (ip), vehicle: saline
[12] = dose: 200.0 mg/kg/injection, schedule: Q01DX009 (ip), vehicle: saline
[13] = dose: 200.0 mg/kg/injection, schedule: Q04DX003 (ip), vehicle: saline with Tween-80
[14] = dose: 100.0 mg/kg/injection, schedule: Q04DX003 (ip), vehicle: saline with Tween-80

CC(=O)NCCc1nc(-c2nc(C(=O)O)cs2)cs1
T/C (dose: 12.5 mg/kg/injection, schedule: Q01DX009 (ip), vehicle: distilled water + Tween-80): 102 % of control
T/C (dose: 25.0 mg/kg/injection, schedule: Q01DX009 (ip), vehicle: distilled water + Tween-80): 100 % of control
T/C (dose: 50.0 mg/kg/injection, schedule: Q01DX009 (ip), vehicle: distilled water + Tween-80): 102 % of control
T/C (dose: 100.0 mg/kg/injection, schedule: Q01DX009 (ip), vehicle: distilled water + Tween-80): 100 % of control

COc1ccc(C(=O)Cc2nc3nnc(NC(=O)Nc4ccc(Cl)cc4)n3[nH]c2=O)cc1
T/C [1]: 99 % of control
T/C [2]: 99 % of control
T/C [3]: 100 % of control

COC(=O)CCC(Br)(Br)Br
T/C [4]: 94 % of control
T/C [5]: 99 % of control

O=C(Nc1cc(NC(=O)n2nnc3ccccc32)c(Br)cc1Br)n1nnc2ccccc21
T/C [4]: 91 % of control
T/C [5]: 89 % of control
T/C [6]: 97 % of control

CC(C)CCCC(C)C1CCC2C3CCC4CC5(C)C(CC4(C)C3CCC12C)C(=O)C5(Cl)Cl (centres undefined)
T/C [7]: 96 % of control
T/C [8]: 100 % of control
T/C [9]: 99 % of control

Cn1c(=O)c2[nH]c(Cl)nc2n(C)c1=O
T/C (dose: 25.0 mg/kg/injection, schedule: Q01DX009 (ip), vehicle: saline): 100 % of control
T/C [10]: 102 % of control
T/C [11]: 102 % of control
T/C [12]: 99 % of control

CSc1nc2ccc(NC(=O)/C=N/O)cc2s1
T/C [4]: 91 % of control
T/C [5]: 92 % of control
T/C [6]: 87 % of control and 90 % of control

Nc1nc(N)c2nc(CNc3ccc(C(=O)NC(CC(=O)O)C(=O)O)cc3)cnc2n1 (centres undefined)
T/C (dose: 12.5 mg/kg/injection, schedule: Q01DX009 (ip), vehicle: saline with Tween-80): 150 % of control
T/C (dose: 50.0 mg/kg/injection, schedule: Q01DX009 (ip), vehicle: saline with Tween-80): 95 % of control
T/C (dose: 66.0 mg/kg/injection, schedule: Q04DX003 (ip), vehicle: saline with Tween-80): 112 % of control
T/C [13]: 90 % of control

Cc1[nH]c(C)c(Cl)c(=O)c1Cl
T/C (dose: 6.25 mg/kg/injection, schedule: Q01DX009 (ip), vehicle: Klucel (hydroxypropylcellulose) (HPC)): 98 % of control
T/C (dose: 12.5 mg/kg/injection, schedule: Q01DX009 (ip), vehicle: Klucel (hydroxypropylcellulose) (HPC)): 100 % of control
T/C (dose: 25.0 mg/kg/injection, schedule: Q01DX009 (ip), vehicle: Klucel (hydroxypropylcellulose) (HPC)): 115 % of control

NCC(=O)O.[Cl-].[Cl-].[Cl-].[Cl-].[Pt+2]
T/C (dose: 12.5 mg/kg/injection, schedule: Q01DX009 (ip), vehicle: saline): 124 % of control
T/C (dose: 14.7 mg/kg/injection, schedule: Q01DX009 (ip), vehicle: saline): 108 % of control
T/C (dose: 22.0 mg/kg/injection, schedule: Q01DX009 (ip), vehicle: saline): 108 % of control

COc1ccc(S(=O)(=O)c2cnc(N/N=C/c3ccc([N+](=O)[O-])o3)nc2N)cc1
T/C (dose: 100.0 mg/kg/injection, schedule: Q01DX001 (ip), vehicle: saline): 93 % of control
T/C (dose: 200.0 mg/kg/injection, schedule: Q01DX001 (ip), vehicle: saline): 90 % of control
T/C (dose: 400.0 mg/kg/injection, schedule: Q01DX001 (ip), vehicle: saline): 90 % of control

COC(=O)C1=C(C2=C(C(=O)OC)CCC2)CCC1
T/C (dose: 100.0 mg/kg/injection, schedule: Q04DX002 (ip), vehicle: saline with Tween-80): 93 % of control
T/C (dose: 200.0 mg/kg/injection, schedule: Q04DX002 (ip), vehicle: saline with Tween-80): 97 % of control
T/C (dose: 400.0 mg/kg/injection, schedule: Q04DX002 (ip), vehicle: saline with Tween-80): 100 % of control

COc1ccc(C2(C3NCCC4=C3CCCC4)CC2)cc1 (centres undefined)
T/C (dose: 50.0 mg/kg/injection, schedule: Q01DX005 (ip), vehicle: Klucel (hydroxypropylcellulose) (HPC)): 97 % of control
T/C (dose: 100.0 mg/kg/injection, schedule: Q01DX005 (ip), vehicle: Klucel (hydroxypropylcellulose) (HPC)): 100 % of control

O=C(Nc1ccccc1)c1cc(Cl)ccc1O
T/C [14]: 100 % of control
T/C [13]: 100 % of control
T/C (dose: 400.0 mg/kg/injection, schedule: Q04DX003 (ip), vehicle: saline with Tween-80): 100 % of control

Cc1nnc2c(=O)n(C)ccn12
T/C (dose: 25.0 mg/kg/injection, schedule: Q01DX001 (ip), vehicle: saline with Tween-80): 95 % of control
T/C (dose: 50.0 mg/kg/injection, schedule: Q01DX001 (ip), vehicle: saline with Tween-80): 95 % of control
T/C (dose: 100.0 mg/kg/injection, schedule: Q01DX001 (ip), vehicle: saline with Tween-80): 97 % of control

CCN(CC)c1ccc2cc(S(=O)(=O)c3ccccc3)c(=O)oc2c1
T/C [1]: 91 % of control
T/C [2]: 86 % of control

CC(N)(Cc1ccc(O)c(O)c1)C(=O)O (centres undefined)
T/C [10]: 99 % of control and 107 % of control and 110 % of control
T/C [11]: 99 % of control and 102 % of control and 112 % of control
T/C [12]: 108 % of control and 96 % of control
T/C (dose: 400.0 mg/kg/injection, schedule: Q01DX009 (ip), vehicle: saline): 105 % of control and 109 % of control and 115 % of control
T/C (dose: 600.0 mg/kg/injection, schedule: Q01DX009 (ip), vehicle: saline): 114 % of control and 121 % of control and 94 % of control

Cc1ncc(CO)c(CO)c1OCC(O)CN1CCN(C(=O)c2ccccc2)CC1 (centres undefined)
T/C (dose: 60.0 mg/kg/injection, schedule: Q01DX005 (ip), vehicle: saline): 101 % of control
T/C (dose: 120.0 mg/kg/injection, schedule: Q01DX005 (ip), vehicle: saline): 104 % of control

C1CCC(NC2CCCCC2)CC1
T/C (dose: 12.5 mg/kg/injection, schedule: Q01DX005 (ip), vehicle: saline): 103 % of control
T/C (dose: 23.7 mg/kg/injection, schedule: Q01DX005 (ip), vehicle: saline): 100 % of control
T/C (dose: 25.0 mg/kg/injection, schedule: Q01DX005 (ip), vehicle: saline): 102 % of control
T/C (dose: 35.6 mg/kg/injection, schedule: Q01DX005 (ip), vehicle: saline): 100 % of control
T/C (dose: 50.0 mg/kg/injection, schedule: Q01DX005 (ip), vehicle: saline): 100 % of control
T/C (dose: 53.3 mg/kg/injection, schedule: Q01DX005 (ip), vehicle: saline): 100 % of control
T/C (dose: 80.0 mg/kg/injection, schedule: Q01DX005 (ip), vehicle: saline): 100 % of control
T/C (dose: 100.0 mg/kg/injection, schedule: Q01DX005 (ip), vehicle: saline): 93 % of control
T/C (dose: 200.0 mg/kg/injection, schedule: Q01DX005 (ip), vehicle: saline): 102 % of control

O=C(O)CCCNC1=CC(=O)c2ccccc2C1=O
T/C (dose: 25.0 mg/kg/injection, schedule: Q04DX003 (ip), vehicle: saline with Tween-80): 101 % of control
T/C (dose: 50.0 mg/kg/injection, schedule: Q04DX003 (ip), vehicle: saline with Tween-80): 104 % of control
T/C [14]: 102 % of control and 86 % of control

CSc1nc2ncnc(N)c2[nH]1
T/C [7]: 93 % of control
T/C [8]: 96 % of control
T/C [9]: 108 % of control

COc1cc2ccc(CC(=O)NCCc3ccc4c(c3)OCO4)cc2cc1OC
T/C [5]: 100 % of control
T/C [6]: 100 % of control
T/C (dose: 400.0 mg/kg/injection, schedule: Q01DX009 (ip), vehicle: Klucel (hydroxypropylcellulose) (HPC)): 90 % of control

CC1CCCC(C2CC3CCCCC3C(N)[N-]2)[N-]1.CC1CCCC(C2CC3CCCCC3C(N)[N-]2)[N-]1.O=[N+]([O-])O.[Cu+] (centres undefined)
T/C (dose: 25.0 mg/kg/injection, schedule: Q04DX002 (ip), vehicle: suspension in saline): 93 % of control
T/C (dose: 50.0 mg/kg/injection, schedule: Q04DX002 (ip), vehicle: suspension in saline): 97 % of control
T/C (dose: 100.0 mg/kg/injection, schedule: Q04DX002 (ip), vehicle: suspension in saline): 99 % of control and 97 % of control
T/C (dose: 200.0 mg/kg/injection, schedule: Q04DX002 (ip), vehicle: suspension in saline): 96 % of control

C=CC(=O)NCC(=O)O
T/C [10]: 100 % of control
T/C [11]: 103 % of control
T/C [12]: 109 % of control

Cn1c([N+](=O)[O-])cnc1/C=[N+](\[O-])C1CCCCC1
T/C [10]: 100 % of control
T/C [11]: 100 % of control
T/C [12]: 102 % of control

C=CC(C)(C)C1Oc2cc(O)ccc2C(=O)C1c1ccc(OC)c(OC)c1O (centres undefined)
T/C (dose: 100.0 mg/kg/injection, schedule: Q04DX003 (ip), vehicle: Klucel (hydroxypropylcellulose) (HPC)): 92 % of control
T/C (dose: 200.0 mg/kg/injection, schedule: Q04DX003 (ip), vehicle: Klucel (hydroxypropylcellulose) (HPC)): 100 % of control
T/C (dose: 400.0 mg/kg/injection, schedule: Q04DX003 (ip), vehicle: Klucel (hydroxypropylcellulose) (HPC)): 92 % of control

CN1CCOP(=O)(c2ccccc2)N1 (centres undefined)
T/C [1]: 99 % of control
T/C [2]: 100 % of control
T/C [3]: 89 % of control

Reference: PubChem BioAssay AID330 (DTP/NCI, 2004)
